Patent US20250197372A1 (priority 2020, published 2025)

The compounds below were run against T1, recombinant alpha-glucosidase I (human full-length glucosidase I, Glu 1) (Homo sapiens, UniProt Q13724) (assay: Alpha-glucosidase I assay (Amplex Red glucose detection, synthetic trisaccharide substrate)). Conditions: Glucosidase 1; read-out: Glu 1 IC50.
T1 construct: 6-His (C); made in house; host or cells: HEK-293T cells transduced with BacMam virus (virus raised in Sf9)
T1 sequence (Q13724 1-837): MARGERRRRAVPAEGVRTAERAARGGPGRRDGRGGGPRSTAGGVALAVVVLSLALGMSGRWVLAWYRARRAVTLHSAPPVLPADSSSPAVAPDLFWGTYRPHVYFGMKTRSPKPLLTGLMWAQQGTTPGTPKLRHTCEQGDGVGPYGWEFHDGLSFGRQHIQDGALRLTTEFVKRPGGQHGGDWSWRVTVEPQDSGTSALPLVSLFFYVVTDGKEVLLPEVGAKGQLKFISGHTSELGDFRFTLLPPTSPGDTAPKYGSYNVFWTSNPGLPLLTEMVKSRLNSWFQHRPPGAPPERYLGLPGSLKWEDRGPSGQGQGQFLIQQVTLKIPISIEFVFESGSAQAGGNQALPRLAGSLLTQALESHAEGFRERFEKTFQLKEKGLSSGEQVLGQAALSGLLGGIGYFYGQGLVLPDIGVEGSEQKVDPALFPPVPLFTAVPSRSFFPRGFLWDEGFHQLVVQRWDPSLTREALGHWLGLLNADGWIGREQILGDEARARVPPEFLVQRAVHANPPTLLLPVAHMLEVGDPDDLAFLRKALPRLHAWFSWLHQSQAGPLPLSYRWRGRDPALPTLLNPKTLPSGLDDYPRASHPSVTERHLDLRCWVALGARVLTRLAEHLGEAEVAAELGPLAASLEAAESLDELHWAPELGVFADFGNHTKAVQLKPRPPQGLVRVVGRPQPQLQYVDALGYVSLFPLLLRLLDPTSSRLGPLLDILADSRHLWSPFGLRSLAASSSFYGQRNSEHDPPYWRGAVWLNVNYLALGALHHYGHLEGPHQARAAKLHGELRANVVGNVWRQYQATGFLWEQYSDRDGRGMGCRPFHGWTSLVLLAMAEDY
Type: biochemical
Summary of the method: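 Compound dilution series incubated 60 min at 37° C with recombinant His-tagged human glucosidase I ([…]), after which trisaccharide substrate analog was added for 90 min at 37° C. Reaction quenched with 1.5M Tris pH 8; D-glucose detected by Amplex Red fluorescence, 560/590 nm. 4-PL curve fit of percent inhibition gave IC50.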
Compound `CS(=O)(=O)c1cc(NCc2cccc(CN3C[C@H](O)[C@@H](O)[C@H](O)[C@H]3CO)c2)cc(N2CCOCC2)c1` [Compound 1036, (2R,3R,4R,5S)-2-(hydroxymethyl)-1-{[3-({[3-methanesulfonyl-5-(morpholin-4-yl)phenyl]amino}methyl)phenyl]methyl}piperidine-3,4,5-triol] has an IC50 of 0.03 µM.
`CN(C)Cc1ccc(NCCCCCCN2C[C@H](O)[C@@H](O)[C@H](O)[C@H]2CO)c(F)c1` [Compound 1236, (2R,3R,4R,5S)-1-[6-({4-[(dimethylamino)methyl]-2-fluorophenyl}amino)hexyl]-2-(hydroxymethyl)piperidine-3,4,5-triol] showed an IC50 of 0.296 µM.
`CS(=O)(=O)c1cc(Br)cc(NCc2ccc(CN3C[C@H](O)[C@@H](O)[C@H](O)[C@H]3CO)cc2)c1` [Compound 1025, (2R,3R,4R,5S)-1-[(4-{[(3-bromo-5-methanesulfonylphenyl)amino]methyl}phenyl)methyl]-2-(hydroxymethyl)piperidine-3,4,5-triol] showed an IC50 of 0.021 µM.
Compound `NC(=O)CCN(CCNc1ccc(-c2ncccn2)cc1[N+](=O)[O-])CCN1C[C@H](O)[C@@H](O)[C@H](O)[C@H]1CO` [Compound 1226, 3-[(2-{[2-nitro-4-(pyrimidin-2-yl)phenyl]amino}ethyl)({2-[(2R,3R,4R,5S)-3,4,5-trihydroxy-2-(hydroxymethyl)piperidin-1-yl]ethyl})amino]propanamide] has an IC50 of 9.53 µM.
For `[N-]=[N+]=Nc1ccc(NCCn2cc(CCN3C[C@H](O)[C@@H](O)[C@H](O)[C@H]3CO)nn2)c([N+](=O)[O-])c1` [Compound 1272, (2R,3R,4R,5S)-1-[2-(1-{2-[(4-azido-2-nitrophenyl)amino]ethyl}-1H-1,2,3-triazol-4-yl)ethyl]-2-(hydroxymethyl)piperidine-3,4,5-triol], the IC50 was 1.8 µM.
